# Results: patent US9745328B2, “Flap modulators” (JANSSEN PHARMACEUTICA NV, priority 2013, dated 2017)
# pKi: −log10 of the molar value. Structures can show the parent of a compound that is named as a salt.
# Biological target: human FLAP (Homo sapiens (Human), UniProt P20292)
# Experiment: FLAP binding assay (HTRF format)
# Settings: Table 6 (additional runs), human FLAP wild type
# In short: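 Samples were run in duplicate on each of two assay plates, the results were averaged, and the signal was expressed as an HTRF ratio.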
# human FLAP, sequence (P20292 whole entry): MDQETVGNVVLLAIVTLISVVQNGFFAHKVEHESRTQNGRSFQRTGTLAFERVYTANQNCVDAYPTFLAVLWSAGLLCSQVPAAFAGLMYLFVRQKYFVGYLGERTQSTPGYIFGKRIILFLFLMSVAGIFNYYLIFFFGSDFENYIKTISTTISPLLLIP
row,pKi,SMILES
1,8.34,"Nc1cnc(-c2ccc(-c3ccccc3S(=O)(=O)N3CCN(C(=O)C4CC4)CC3)cc2F)cn1 [Example 58, 5-(2′-{[4-(Cyclopropylcarbonyl)piperazin-1-yl]sulfonyl}-3-fluoroblphenyl-4-yl)pyrazin-2-amine]"
2,7.87,"CC(=O)N1CCN(S(=O)(=O)c2ccccc2-c2ccc(-c3cnc(N)cn3)c(F)c2)CC1 [Example 57, 5-{2′-[(4-Acetylpiperazin-1-yl)sulfonyl]-3-fluorobiphenyl-4-yl}pyrazin-2-amine]"
3,8.77,"C[C@@H](CO)NS(=O)(=O)c1ccccc1-c1ccc(-c2cnc3c(c2)OCCN3)c(F)c1 [Example 388, 4′-(3,4-Dihydro-2H-pyrido[3,2-b]l[1,4]oxazin-7-yl)-3′-fluoro-N-[(1S)-2-hydroxy-1-methylethyl]biphenyl-2-sulfonamide]"
4,8.09,"CC(CO)(CO)NS(=O)(=O)c1ccccc1-c1ccc(-c2cnc(N)nc2)c(F)c1 [Example 255, 4′-(2-Aminopyrimidin-5-yl)-3′-fluoro-N-[2-hydroxy-1-(hydroxymethyl)-1-methylethyl]biphenyl-2-sulfonamide]"
5,8.74,"O=S(=O)(c1ccccc1-c1ccc(-c2cnc3c(c2)OCCN3)c(F)c1)N1CCCCC1 [Example 386, 7-[3-Fluoro-2′-(piperidin-1-ylsulfonyl)biphenyl-4-yl]-3,4-dihydro-2H-pyrido[3,2-b][1,4]oxazine]"
6,7.88,"NC1CCN(S(=O)(=O)c2ccccc2-c2ccc(-c3cnc4c(c3)OCCN4)c(F)c2)CC1 [Example 389, 1-{[4′-(3,4-Dihydro-2H-pyrido[3,2-b][1,4]oxazin-7-yl)-3′-fluorobiphenyl-2-yl]sulfonyl}piperidin-4-amine]"
7,6.49,"Nc1ncc(-c2ccc(-c3ccccc3S(=O)(=O)N3CC4(COC4)C3)cc2F)cn1 [Example 312, 5-(2′-(2-oxa-6-azaspiro[3.3]heptan-6-ylsulfonyl)-3-fluoro-[1,1′-biphenyl]-4-yl)pyrimidin-2-amine]"
8,6.30,"Nc1ncc(-c2ccc(-c3ccccc3S(=O)(=O)Cc3nc(C4CC4)no3)cc2F)cn1 [Example 321, 5-(2′-{[(3-Cyclopropyl-1,2,4-oxadiazol-5-yl)methyl]sulfonyl}-3-fluorobiphenyl-4-yl)pyrimidin-2-amine]"
9,8.49,"C[C@H](NS(=O)(=O)c1ccccc1-c1ccc(-c2cnc(N)nc2)c(F)c1)C(F)(F)F [Example 297, 4′-(2-Aminopyrimidin-5-yl)-3′-fluoro-N-[(1S)-2,2,2-trifluoro-1-methylethyl]biphenyl-2-sulfonamide trifluoroacetic acid salt]"
10,9.15,"Nc1cnc(-c2ccc(-c3ccccc3Sc3ccnc(N)n3)cc2F)cn1 [Example 242, 4-{[4′(5-Aminopyrazin-2-yl)-3′-fluorobiphenyl-2-yl]sulfanyl}pyrimidin-2-amine hydrochloride]"
11,8.21,"C[C@H](O)CNS(=O)(=O)c1ccccc1-c1ccc(-c2cnc(N)cn2)c(F)c1 [Example 98, (S)-4′-(5-aminopyrazin-2-yl)-3′-fluoro-N-(2-hydroxypropyl)-[1,1′-biphenyl]-2-sulfonamide]"
12,8.30,"CCNS(=O)(=O)c1ccccc1-c1ccc(-c2cnc(N)cn2)c(F)c1 [Example 16, 4′-(5-Aminopyrazin-2-yl)-N-ethyl-3′-fluorobiphenyl-2-sulfonamide]"
13,9.22,"CC(CO)NS(=O)(=O)c1ccccc1-c1ccc(-c2cnc3[nH]ccc3n2)c(F)c1 (stereo in doubt) [Example 378, 3′-Fluoro-N-[(1R)-2-hydroxy-1-methylethyl]-4′-(5H-pyrrolo[2,3-b]pyrazin-2-yl)biphenyl-2-sulfonamide]"
14,7.32,"CCCS(=O)(=O)c1ccccc1-c1ccc(-c2cnc(N)cn2)c(F)c1 [Example 192, 5-[3-Fluoro-2′-(propylsulfonyl)biphenyl-4-yl]pyrazin-2-amine]"
15,7.97,"Nc1cnc(-c2ccc(-c3ccccc3NS(=O)(=O)C(F)(F)F)cc2F)cn1 [Example 41, N-[4′-(5-Aminopyrazin-2-yl)-3′-fluorobiphenyl-2-yl]-1,1,1-trifluoromethanesulfonamide]"
16,7.20,"CN1CCCC[C@@H](NS(=O)(=O)c2ccccc2-c2ccc(-c3cnc(N)cn3)c(F)c2)C1=O [Example 29, (S)-4′-(5-Aminopyrazin-2-yl)-3′-fluoro-N-[(3S)-1-methyl-2-oxoazepan-3-yl]biphenyl-2-sulfonamide]"
17,9.30,"CC(NS(=O)(=O)c1ccccc1-c1ccc(-c2cnc3[nH]ccc3n2)c(F)c1)C(F)(F)F (racemic) [Example 376, 3′-Fluoro-4′-(5H-pyrrolo[2,3-b]pyrazin-2-yl)N-N-(2,2,2-trifluoro-1-methylethyl)biphenyl-2-sulfonamide]"
18,8.46,"Nc1cnc(-c2ccc(-c3ccccc3S(=O)(=O)NC3CCCC3)cc2F)cn1 [Example 14, 4′-(5-Aminopyrazin-2-yl)-N-cyclopentyl-3′-fluorobiphenyl-2-sulfonamide]"
19,8.74,CCNS(=O)(=O)c1cc(C(F)(F)F)ccc1-c1ccc(-c2cnc(N)nc2)c(F)c1 [Example 327]
20,8.85,"Nc1cnc(-c2ccc(-c3ccccc3S(=O)(=O)N(C3CCOCC3)C3CC3)cc2F)cn1 [Example 140, 4′-(5-Aminopyrazin-2-yl)-N-cyclopropyl-3′-fluoro-N-(tetrahydro-2H-pyran-4-yl)biphenyl-2-sulfonamide]"

# Same assay, conditions: human FLAP wild type, Table 6 (additional runs)
row,pKi,SMILES
1,6.87,"Nc1cnc(-c2ccc(-c3ccccc3C(F)(F)F)cc2F)cn1 [Example 472, 5-[3-Fluoro-2′-(trifluoromethyl)biphenyl-4-yl]pyrazin-2-amine]"
2,5.89,"C[C@H]1COCCN1C(=O)c1ccccc1-c1ccc(-c2cnc(N)cn2)c(F)c1 [Example 774, 5-(3-Fluoro-2′-{[(3S)-3-methylmorpholin-4-yl]carbonyl}biphenyl-4-yl)pyrazin-2-amine]"
3,7.52,"C[C@@H]1COCCN1C(=O)c1ccccc1-c1ccc(-c2cnc(N)cn2)c(F)c1 [Example 775, 5-(3-Fluoro-2′-{[(3R)-3-methylmorpholin-4-yl]carbonyl}biphenyyl-4-yl)pyrazin-2-amine]"
4,8.80,"Nc1cnc(-c2ccc(-c3ccc(C(F)(F)F)cc3Oc3ccnc(N)n3)cc2F)cn1 [Example 555, 4-{[4′-(5-Aminopyrazin-2-yl)-3′-fluoro-4-(trifluoromethyl)biphenyl-2-yl]oxy}pyrimidin-2-amine]"
5,7.13,"Nc1ncc(-c2ccc(-c3cccnc3S(=O)(=O)C3CCS(=O)(=O)CC3)cc2F)cn1 [Example 819, 4-((3-(4-(2-aminopyrimidin-5-yl)-3-fluorophenyl)pyridine-2-yl)sulfonyl)tetrahydro-2H-thiopyran 1,1-dioxide]"
6,8.11,"Nc1cnc(-c2ccc(-c3ccccc3NS(=O)(=O)c3ccccc3)cc2F)cn1 [Example 479, N-[4′-(5-Aminopyrazin-2-yl)-3′-fluorobiphenyl-2-yl]benzenesulfonamide]"
7,7.49,"Nc1ncc(-c2ccc(-c3ccccc3Oc3cccc(C(F)(F)F)n3)cc2F)cn1 [Example 624, 5-(3-Fluoro-2′-{[6-(trifluoromethyl)pyridin-2-yl]oxy}biphenyl-4-yl)pyrimidin-2-amine]"
8,9.10,"CC(C)(C)NS(=O)(=O)c1ccccc1-c1ccc(-c2cnc3c(c2)CCN3)c(F)c1 [Example 431, N-tert-Butyl-4′-(2,3-dihydro-1H-pyrrolo[2,3-b]pyridin-5-yl)-3′-fluorobiphenyl-2-sulfonamide]"

# Same assay, conditions: human FLAP wild type, a calculated value of 0.000 indicates Ki less than 1 nM
row,pKi,SMILES
1,> 9.00,"CC(NS(=O)(=O)c1ccccc1-c1ccc(-c2cnc3[nH]ccc3n2)c(F)c1)C(F)(F)F (racemic) [Example 376, 3′-Fluoro-4′-(5H-pyrrolo[2,3-b]pyrazin-2-yl)N-N-(2,2,2-trifluoro-1-methylethyl)biphenyl-2-sulfonamide]"
